For 9 compounds, IC50 results are on record in patent US12156880B2, “Heterocyclic RIP1 kinase inhibitors” (Rigel Pharmaceuticals, Inc., priority 2021, dated 2024).

Test [1] addresses T1, RIPK1 (Homo sapiens, UniProt Q13546).
T1 sequence (Q13546 1-671): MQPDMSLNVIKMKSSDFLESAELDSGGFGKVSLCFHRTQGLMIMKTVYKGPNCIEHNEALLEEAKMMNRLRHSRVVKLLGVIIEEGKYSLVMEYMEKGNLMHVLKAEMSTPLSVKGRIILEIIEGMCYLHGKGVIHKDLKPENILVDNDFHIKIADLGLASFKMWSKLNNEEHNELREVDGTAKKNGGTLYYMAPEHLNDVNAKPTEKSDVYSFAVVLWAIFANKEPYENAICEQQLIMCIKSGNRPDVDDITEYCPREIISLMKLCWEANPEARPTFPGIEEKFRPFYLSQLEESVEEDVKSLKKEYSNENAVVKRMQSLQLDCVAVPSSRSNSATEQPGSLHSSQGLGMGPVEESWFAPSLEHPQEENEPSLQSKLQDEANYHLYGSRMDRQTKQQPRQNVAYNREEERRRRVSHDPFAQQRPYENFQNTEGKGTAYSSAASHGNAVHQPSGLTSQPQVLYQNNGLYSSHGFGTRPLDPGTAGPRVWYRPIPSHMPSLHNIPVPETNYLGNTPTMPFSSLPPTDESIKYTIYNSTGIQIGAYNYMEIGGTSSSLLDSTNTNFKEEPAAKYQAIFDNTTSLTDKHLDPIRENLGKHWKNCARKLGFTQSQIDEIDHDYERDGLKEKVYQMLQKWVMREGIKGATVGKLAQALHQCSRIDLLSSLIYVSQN
As to the kind of experiment: RIPK1 ADP-Glo biochemical kinase assay. The method, boiled down: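 RIPK1 at 31 ng/well in Tris pH 7.4 buffer with MgCl2, BSA, DTT and MnCl2, reacted with compounds (duplicate) for 30 min at 30 °C. ADP formed detected by ADP-Glo: 40 min stop/depletion, then 30 min detection reagent at room temperature; luminescence read.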

Test [2] has as its system L929 cells. As to the kind of experiment: L929 cell necroptosis assay (TNFa + zVAD, CellTiter-Glo recovery). The conditions noted are these: Mus musculus, L929, 18 h, TNFa 2 ng/mL + zVAD-fmk, read-out: L929-CTG-recovery, L929, TNFa + zVAD (IC50). The format is cell-based, murine. An outline of the steps: (§1)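 Human U937 (50K/well, 60 uM zVAD-fmk medium, plated same day) or murine L929 (10K/well, plated 18 h, then 40 uM zVAD-fmk medium) were grown in RPMI with 10% FBS. Both were pretreated with compound for 1 h at 37 °C before TNFa at 2 ng/mL final. Viability was read by CellTiter-Glo luminescence after 18 h.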

For test [3], the system named is U937 cells. As to the kind of experiment: U937 cell necroptosis assay (TNFa + zVAD, CellTiter-Glo recovery). The format is cell-based. The conditions noted are these: Homo sapiens, U-937, 18 h, TNFa 2 ng/mL + zVAD-fmk, read-out: U937 Zvad TNF CTG Recovery, U937, TNFa + zVAD (IC50). An outline of the steps:
as §1

Where [4] appears, read: read-out: RIPK1 ADP-Glo Kinase (IC50).

Like-named read-outs stand apart in the source and are kept apart here.

Take `CN1C(=O)[C@@H](NC(=O)c2cc(Oc3cccnc3)ccn2)COc2ccc(C#CC(C)(C)C)cc21` [I-102, (S)—N-(7-(3,3-dimethylbut-1-yn-1-yl)-5-methyl-4-oxo-2,3,4,5-tetrahydrobenzo[b][1,4]oxazepin-3-yl)-4-(pyridin-3-yloxy)picolinamide]: the IC50 turned out to be 29.5 nM in test [1] (setting [4]), 645 nM in test [2] and 7.5 nM in test [3].

For the compound `CN1C(=O)[C@@H](NC(=O)n2cc(Cc3cccc(F)n3)cn2)COc2ccc(C#CC3CCOCC3)cc21` [I-34, (S)-4-((6-Fluoropyridin-2-yl)methyl)-N-(5-methyl-4-oxo-7-((tetrahydro-2H-pyran-4-yl)ethynyl)-2,3,4,5-tetrahydrobenzo[b][1,4]oxazepin-3-yl)-1H-pyrazole-1-carboxamide], the half-maximal inhibitory concentration (IC50) was 15.3 nM in test [1] (setting [4]), 68.1 nM in test [2] and 1.3 nM in test [3].

For `CN1C(=O)[C@@H](NC(=O)n2cc(Cc3cccnc3F)cn2)COc2ccc(C#CC3(O)CCOCC3)cc21` [I-44, (S)-4-((2-Fluoropyridin-3-yl)methyl)-N-(7-((4-hydroxytetrahydro-2H-pyran-4-yl)ethynyl)-5-methyl-4-oxo-2,3,4,5-tetrahydrobenzo[b][1,4]oxazepin-3-yl)-1H-pyrazole-1-carboxamide], the values for the IC50 in test [1] (setting [4]), in test [2] and in test [3] were 62.9 nM, 4120 nM and 18 nM, respectively.

`Cc1ccc(Cc2ccnc(C(=O)N[C@H]3COc4ccc(C#CC(C)(C)O)cc4N(C)C3=O)c2)cn1` [I-72, (S)—N-(7-(3-hydroxy-3-methylbut-1-yn-1-yl)-5-methyl-4-oxo-2,3,4,5-tetrahydrobenzo[b][1,4]oxazepin-3-yl)-4-((6-methylpyridin-3-yl)methyl)picolinamide]: the results for the IC50 in test [1] (setting [4]), in test [2] and in test [3] were 33.1 nM, 3010 nM and 190 nM, respectively.

`CN1C(=O)[C@@H](NC(=O)n2cc(Cc3cccc(F)n3)cn2)CCc2ccc(C#CC3(O)CCC3)cc21` [I-117, (S)-4-((6-Fluoropyridin-2-yl)methyl)-N-(8-((1-hydroxycyclobutyl)ethynyl)-1-methyl-2-oxo-2,3,4,5-tetrahydro-1H-benzo[b]azepin-3-yl)-1H-pyrazole-1-carboxamide]: the IC50 in test [1] was found to be 12.3 nM; in test [2], 13.1 nM; in test [3], 1.2 nM.

Take `Cc1cccc(Cc2ccnc(C(=O)N[C@H]3COc4ccc(C#CC5(O)COC5)cc4N(C)C3=O)c2)n1` [I-12, (S)—N-(7-((3-hydroxyoxetan-3-yl)ethynyl)-5-methyl-4-oxo-2,3,4,5-tetrahydrobenzo[b][1,4]oxazepin-3-yl)-4-((6-methylpyridin-2-yl)methyl)picolinamide]: the IC50 in test [1] (setting [4]) was 25.2 nM; in test [2], 3470 nM; in test [3], 73.4 nM.

Regarding `CN1C(=O)[C@@H](NC(=O)c2cc(Oc3cccnc3F)ccn2)COc2ccc(C#CC(C)(C)O)cc21` [I-54, (S)-4-((2-fluoropyridin-3-yl)oxy)-N-(7-(3-hydroxy-3-methylbut-1-yn-1-yl)-5-methyl-4-oxo-2,3,4,5-tetrahydrobenzo[b][1,4]oxazepin-3-yl)picolinamide], the IC50 in test [1] (setting [4]) is 16.8 nM; in test [2], 573 nM; in test [3], 7.1 nM.

For the compound `CN1C(=O)[C@@H](NC(=O)n2cc(Cc3ccc(F)nc3)cn2)COc2ccc(C#CC(C)(C)O)cc21` [I-16, (S)-4-((6-Fluoropyridin-3-yl)methyl)-N-(7-(3-hydroxy-3-methylbut-1-yn-1-yl)-5-methyl-4-oxo-2,3,4,5-tetrahydrobenzo[b][1,4]oxazepin-3-yl)-1H-pyrazole-1-carboxamide], the IC50 in test [1] (setting [4]) turned out to be 37.9 nM; in test [2], 2390 nM; in test [3], 17.2 nM.

For the compound `CN1C(=O)[C@@H](NC(=O)n2cc(Cc3cccnc3F)cn2)COc2ccc(C#CC3(O)CCC3)cc21` [I-48, (S)-4-((2-Fluoropyridin-3-yl)methyl)-N-(7-((1-hydroxycyclobutyl)ethynyl)-5-methyl-4-oxo-2,3,4,5-tetrahydrobenzo[b][1,4]oxazepin-3-yl)-1H-pyrazole-1-carboxamide], the IC50 in test [1] (setting [4]) was 646 nM; in test [2], 1470 nM; in test [3], 24.9 nM.
